# Laboratory results published in PubChem BioAssay AID248 (DTP/NCI, 2004).
# Values joined by “and” are separate entries in the source; they are usually repeats but may differ in a detail not shown here. Identical values can stand only once. Toxic doses and inconclusive results are not listed.
# Test system: L1210 leukemia ip in BDF1 mice, survival T/C
# Assay: NCI In Vivo Anticancer Drug Screen. Data for tumor model L1210 Leukemia (intraperitoneal) in B6D2F1 (BDF1) mice
# Details: endpoint: mean survival time, higher = longer survival
# Summary of the method: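 Survival endpoint. Drug-treated group vs vehicle group, expressed as T divided by C. Tumor passaged by transplantation.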
compound,measurement,setting,value
Cc1nc(N)nc(N)c1-c1ccc(Cl)c(Cl)c1,T/C,"dose: 0.6 mg/kg/injection, schedule: Q01DX Z (ip), vehicle: methylcellulose (MC)",106 % of control
same,T/C,"dose: 1.0 mg/kg/injection, schedule: Q01DX009 (ip), vehicle: saline with Tween-80",102 % of control
same,T/C,"dose: 1.0 mg/kg/injection, schedule: Q01DX Z (ip), vehicle: methylcellulose (MC)",102 % of control
same,T/C,"dose: 1.0 mg/kg/injection, schedule: Q04DX009 (ip), vehicle: Klucel (hydroxypropylcellulose) (HPC)",96 % of control
same,T/C,"dose: 1.08 mg/kg/injection, schedule: Q01DX009 (ip), vehicle: saline",117 % of control
same,T/C,"dose: 1.5 mg/kg/injection, schedule: Q01DX Z (ip), vehicle: methylcellulose (MC)",106 % of control
same,T/C,"dose: 1.8 mg/kg/injection, schedule: Q01DX009 (ip), vehicle: saline",107 % of control
same,T/C,"dose: 2.0 mg/kg/injection, schedule: Q04DX009 (ip), vehicle: Klucel (hydroxypropylcellulose) (HPC)",120 % of control
same,T/C,"dose: 2.3 mg/kg/injection, schedule: Q01DX Z (ip), vehicle: methylcellulose (MC)",112 % of control
same,T/C,"dose: 3.0 mg/kg/injection, schedule: Q01DX009 (ip), vehicle: saline",114 % of control
same,T/C,"dose: 3.0 mg/kg/injection, schedule: Q01DX010 (sc), vehicle: other",152 % of control
same,T/C,"dose: 4.0 mg/kg/injection, schedule: Q01DX010 (sc), vehicle: other",152 % of control
same,T/C,"dose: 4.0 mg/kg/injection, schedule: Q01DX Z (ip), vehicle: methylcellulose (MC)",118 % of control
same,T/C,"dose: 5.0 mg/kg/injection, schedule: Q01DX009 (ip), vehicle: saline",122 % of control
same,T/C,"dose: 6.0 mg/kg/injection, schedule: Q01DX Z (ip), vehicle: methylcellulose (MC)",123 % of control
same,T/C,"dose: 8.0 mg/kg/injection, schedule: Q01DX009 (ip), vehicle: saline with Tween-80",102 % of control
same,T/C,"dose: 8.0 mg/kg/injection, schedule: Q04DX009 (ip), vehicle: Klucel (hydroxypropylcellulose) (HPC)",115 % of control
same,T/C,"dose: 8.4 mg/kg/injection, schedule: Q04DX003 (ip), vehicle: saline",102 % of control
same,T/C,"dose: 12.5 mg/kg/injection, schedule: Q04DX003 (ip), vehicle: saline",95 % of control
same,T/C,"dose: 14.0 mg/kg/injection, schedule: Q04DX003 (ip), vehicle: saline",115 % of control
same,T/C,"dose: 16.0 mg/kg/injection, schedule: Q01DX009 (ip), vehicle: saline with Tween-80",90 % of control
same,T/C,"dose: 16.0 mg/kg/injection, schedule: Q04DX009 (ip), vehicle: Klucel (hydroxypropylcellulose) (HPC)",110 % of control
same,T/C,"dose: 23.0 mg/kg/injection, schedule: Q04DX003 (ip), vehicle: saline",105 % of control
same,T/C,"dose: 25.0 mg/kg/injection, schedule: Q01DX001 (ip), vehicle: saline",98 % of control
same,T/C,"dose: 25.0 mg/kg/injection, schedule: Q04DX003 (ip), vehicle: saline",122 % of control
same,T/C,"dose: 39.0 mg/kg/injection, schedule: Q04DX003 (ip), vehicle: saline",119 % of control
same,T/C,"dose: 50.0 mg/kg/injection, schedule: Q01DX001 (ip), vehicle: saline",112 % of control
same,T/C,"dose: 65.0 mg/kg/injection, schedule: Q04DX003 (ip), vehicle: saline",115 % of control
same,T/C,"dose: 200.0 mg/kg/injection, schedule: Q01DX001 (ip), vehicle: saline",88 % of control
CCCCCCOC(=O)Nc1cccc(O)c1,T/C,"dose: 100.0 mg/kg/injection, schedule: Q04DX003 (ip), vehicle: saline with Tween-80",104 % of control
same,T/C,"dose: 200.0 mg/kg/injection, schedule: Q04DX003 (ip), vehicle: saline with Tween-80",101 % of control
same,T/C,"dose: 400.0 mg/kg/injection, schedule: Q04DX003 (ip), vehicle: saline with Tween-80",91 % of control
CCCCCCCCCCCCCCCCCCN(c1ccc(C(=O)OCC)cc1)S(=O)(=O)c1ccc(C)cc1,T/C,"dose: 50.0 mg/kg/injection, schedule: Q01DX009 (ip), vehicle: saline",93 % of control
same,T/C,"dose: 100.0 mg/kg/injection, schedule: Q01DX009 (ip), vehicle: saline",93 % of control
same,T/C,"dose: 100.0 mg/kg/injection, schedule: Q04DX003 (ip), vehicle: saline",97 % of control
same,T/C,"dose: 200.0 mg/kg/injection, schedule: Q01DX009 (ip), vehicle: saline",90 % of control
same,T/C,"dose: 200.0 mg/kg/injection, schedule: Q04DX003 (ip), vehicle: saline",94 % of control
same,T/C,"dose: 400.0 mg/kg/injection, schedule: Q04DX003 (ip), vehicle: saline",94 % of control
ICC1COCC(CI)O1 (centres undefined),T/C,"dose: 100.0 mg/kg/injection, schedule: Q01DX009 (ip), vehicle: saline with Tween-80",101 % of control
same,T/C,"dose: 200.0 mg/kg/injection, schedule: Q01DX009 (ip), vehicle: saline with Tween-80",113 % of control
same,T/C,"dose: 400.0 mg/kg/injection, schedule: Q01DX009 (ip), vehicle: saline with Tween-80",106 % of control
Cc1nc2c(C(N)=O)nc(C)n2nc1C,T/C,"dose: 50.0 mg/kg/injection, schedule: Q04DX002 (ip), vehicle: saline with Tween-80",93 % of control
same,T/C,"dose: 100.0 mg/kg/injection, schedule: Q01DX001 (ip), vehicle: saline with Tween-80",103 % of control
same,T/C,"dose: 100.0 mg/kg/injection, schedule: Q04DX002 (ip), vehicle: saline with Tween-80",105 % of control and 107 % of control
same,T/C,"dose: 200.0 mg/kg/injection, schedule: Q01DX001 (ip), vehicle: saline with Tween-80",106 % of control
same,T/C,"dose: 200.0 mg/kg/injection, schedule: Q04DX002 (ip), vehicle: saline with Tween-80",121 % of control
same,T/C,"dose: 400.0 mg/kg/injection, schedule: Q01DX001 (ip), vehicle: saline with Tween-80",111 % of control
same,T/C,"dose: 400.0 mg/kg/injection, schedule: Q04DX002 (ip), vehicle: saline with Tween-80",99 % of control
same,T/C,"dose: 600.0 mg/kg/injection, schedule: Q01DX001 (ip), vehicle: saline with Tween-80",110 % of control
